Data as given in the NIST ThermoML archive (doi:10.1016/j.fluid.2014.02.004).
Numbers after ± are expanded uncertainties.

Experiment: osmotic coefficient (dimensionless); mn = molality of the nth substance listed, in mol/kg
Conditions: 298.15 K, 101 kPa, Liquid, isopiestic method

NCCC(=O)O [3-aminopropanoic acid] + O
Conditions	osmotic coefficient
m1 = 0.1408	0.9912 ± 0.0004
m1 = 0.2482	0.9892 ± 0.0005
m1 = 0.335	0.988 ± 0.0006
m1 = 0.452	0.9882 ± 0.0006
m1 = 0.6148	0.9901 ± 0.0005
m1 = 0.6813	0.9905 ± 0.0005
m1 = 0.9542	0.9934 ± 0.0003
m1 = 1.43	1.0056 ± 0.0003

NCCCC(=O)O [4-aminobutanoic acid] + O
Conditions	osmotic coefficient
m1 = 0.1412	0.9884 ± 0.0006
m1 = 0.249	0.986 ± 0.0007
m1 = 0.3355	0.9866 ± 0.0007
m1 = 0.453	0.986 ± 0.0007
m1 = 0.6155	0.9889 ± 0.0006
m1 = 0.6809	0.991 ± 0.0005
m1 = 0.944	1.0041 ± 0.0002
m1 = 1.402	1.026 ± 0.0013

NCCCCC(=O)O [5-aminovaleric acid] + O
Conditions	osmotic coefficient
m1 = 0.1414	0.987 ± 0.0007
m1 = 0.2493	0.9848 ± 0.0008
m1 = 0.3362	0.9845 ± 0.0008
m1 = 0.4531	0.9858 ± 0.0007
m1 = 0.618	0.9849 ± 0.0008
m1 = 0.6834	0.9874 ± 0.0006
m1 = 0.9461	1.0019 ± 0.0001
m1 = 1.397	1.029 ± 0.0015

NCCCCCC(=O)O [6-aminohexanoic acid] + O
Conditions	osmotic coefficient
m1 = 0.1411	0.9889 ± 0.0006
m1 = 0.2493	0.9848 ± 0.0008
m1 = 0.3366	0.9833 ± 0.0008
m1 = 0.4538	0.9843 ± 0.0008
m1 = 0.617	0.9865 ± 0.0007
m1 = 0.6826	0.9886 ± 0.0006
m1 = 0.9388	1.0097 ± 0.0005
m1 = 1.388	1.036 ± 0.0018
